Laboratory results from US7582664B2, “Acylaminothiazole derivatives, preparation method thereof and use of same in therapeutics” (Sanofi-Aventis, priority 2004, dated 2009).

Biological target: T1, gamma-secretase (Homo sapiens, UniProt P49768, M146L)
T1 construct: expressed in transfected cells; host or cells: CHO-K1 clone 30-12, co-expressing CT100 of APP and PS1 M146L
Experiment: β-amyloid cellular test: inhibition of production of β-amyloid (β-A4) peptide, ELISA of cell supernatants
Assay type: cell-based
Conditions: line CHO-K1 co-expressing the CT100 of APP and PS1 M146L clone 30-12; incubated 24-25 hours; secreted amyloid peptide by ELISA; read-out: EC50 (50% effective concentration), inhibition of production of the β-amyloid (β-A4) peptide
Excerpt: For the β-amyloid cellular test, the line CHO-K1 co-expressing the CT100 of APP and PS1 M146L clone 30-12 is used. The line targets the inhibition of gamma-secretase. […]
The amount of bound peptide is detected indirectly in the presence of a competitor corresponding to the truncated peptide, the biotin-coupled peptide 1-28, which is then detected with alkaline phosphatase-coupled streptavidin. The substrate, p-nitrophenyl phosphate (pNPP FAST p-Nitrophenyl Phosphate, Sigma N2770) gives a yellow soluble reaction product that can be read at 405 nm. […] After incubation for 30 minutes at room temperature, the reaction is quenched by adding 100 μl per well of 0.1M EDTA and the reading is taken at 405 nm.

EC50: 6 nM
SMILES: CCC[C@H](NC(=O)Cc1cc(F)cc(F)c1)C(=O)Nc1nc(C(=O)OC)c(-c2ccccc2Oc2ccc(F)cc2)s1 [Compound 13, Methyl 2-{2-(S)-[2-(3,5-difluorophenyl)acetylamino]-pentanoyl}amino-5-[2-(4-fluorophenoxy)phenyl]thiazole-4-carboxylate]
